{"source": "patent US8648066B2", "about": "(Exelixis, Inc., priority 2009, dated 2014)", "note": "pIC50: −log10 of the molar value."}
{"target": "mTOR/GbL/Raptor (mTORC1) (Homo sapiens, UniProt P42345)", "assay": "mTOR/GbL/Raptor (mTORC1) ELISA assay", "assay_type": "biochemical", "details": "phosphorylation of 4E-BP1; 0.2 nM mTORC1, 10 μM ATP; read-out: IC50 in this assay (mTORC1 ELISA)", "summary_of_the_method": "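ELISA read-out: phospho-4E-BP1 captured on Ni-chelate plates and detected with anti-phospho antibody plus HRP-anti-IgG luminescence. The kinase step ran 120 min at ambient temperature with 0.2 nM human mTORC1, 10 µM ATP, 50 nM His-4E-BP1, 10 mM MnCl2, pH 7.2 HEPES.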"}
{"smiles": "CC1(C)CCc2ncnc(N3CCOc4ccc(-c5cnc(N)c(S(=O)(=O)N6CC(C)(N)C6)c5)cc4C3)c2C1", "note": "[Example 439, 3-[(3-amino-3-methylazetidin-1-yl)sulfonyl]-5-[4-(6,6-dimethyl-5,6,7,8-tetrahydroquinazolin-4-yl)-2,3,4,5-tetrahydro-1,4-benzoxazepin-7-yl]pyridin-2-amine]", "pIC50": "≥ 8.00"}
{"smiles": "CC1(C)CCc2ncnc(N3CCOc4ccc(-c5cnc(N)c(S(=O)(=O)N6CCC(C)(N)C6)c5)cc4C3)c2C1", "note": "(stereo not shown) [Example 440, 3-[(3-amino-3-methylpyrrolidin-1-yl)sulfonyl]-5-[4-(6,6-dimethyl-5,6,7,8-tetrahydroquinazolin-4-yl)-2,3,4,5-tetrahydro-1,4-benzoxazepin-7-yl]pyridin-2-amine]", "pIC50": "≥ 8.00"}
{"smiles": "CC[C@H]1CCc2c(nc(C)nc2N2CCOc3ccc(-c4cnc(N)c(S(=O)(=O)N5CCC(C)(N)C5)c4)cc3C2)C1", "note": "(stereo partly drawn) [Example 441, 3-[(3-amino-3-methylpyrrolidin-1-yl)sulfonyl]-5-{4-[(7S)-7-ethyl-2-methyl-5,6,7,8-tetrahydroquinazolin-4-yl]-2,3,4,5-tetrahydro-1,4-benzoxazepin-7-yl}pyridin-2-amine]", "pIC50": "7.30 to 8.00"}
{"smiles": "CC[C@H]1CCc2c(ncnc2N2CCOc3ccc(-c4cnc(N)c(S(=O)(=O)N5CCC(C)(N)C5)c4)cc3C2)C1", "note": "(stereo partly drawn) [Example 442, 3-[(3-amino-3-methylpyrrolidin-1-yl)sulfonyl]-5-{4-[(7S)-7-ethyl-5,6,7,8-tetrahydroquinazolin-4-yl]-2,3,4,5-tetrahydro-1,4-benzoxazepin-7-yl}pyridin-2-amine]", "pIC50": "7.30 to 8.00"}
{"smiles": "CC1(C)CCc2ncnc(N3CCOc4ccc(-c5cnc(N)c(S(=O)(=O)N6CC(N)C6)c5)cc4C3)c2C1", "note": "[Example 443, 3-[(3-aminoazetidin-1-yl)sulfonyl]-5-[4-(6,6-dimethyl-5,6,7,8-tetrahydroquinazolin-4-yl)-2,3,4,5-tetrahydro-1,4-benzoxazepin-7-yl]pyridin-2-amine]", "pIC50": "≥ 8.00"}
{"smiles": "CC1(C)CCc2ncnc(N3CCOc4ccc(-c5cnc(N)c(S(=O)(=O)N6CCCC(N)C6)c5)cc4C3)c2C1", "note": "(stereo not shown) [Example 444, 3-[(3-aminopiperidin-1-yl)sulfonyl]-5-[4-(6,6-dimethyl-5,6,7,8-tetrahydroquinazolin-4-yl)-2,3,4,5-tetrahydro-1,4-benzoxazepin-7-yl]pyridin-2-amine]", "pIC50": "7.30 to 8.00"}
{"smiles": "CC1(C)CCc2ncnc(N3CCOc4ccc(-c5cnc(N)c(S(=O)(=O)N6CCC(N)CC6)c5)cc4C3)c2C1", "note": "[Example 446, 3-[(4-aminopiperidin-1-yl)sulfonyl]-5-[4-(6,6-dimethyl-5,6,7,8-tetrahydroquinazolin-4-yl)-2,3,4,5-tetrahydro-1,4-benzoxazepin-7-yl]pyridin-2-amine]", "pIC50": "7.30 to 8.00"}
{"smiles": "CC1=Cc2ncnc(N3CCOc4ccc(-c5cnc(N)c(S(=O)(=O)N6CC[C@@H](N)C6)c5)cc4C3)c2CC1(C)C", "note": "[Example 447, 3-{[(3R)-3-aminopyrrolidin-1-yl]sulfonyl}-5-[4-(6,6,7-trimethyl-5,6-dihydroquinazolin-4-yl)-2,3,4,5-tetrahydro-1,4-benzoxazepin-7-yl]pyridin-2-amine]", "pIC50": "≥ 8.00"}
{"smiles": "CC1=CC(C)(C)Cc2c1ncnc2N1CCOc2ccc(-c3cnc(N)c(S(=O)(=O)N4CC[C@@H](N)C4)c3)cc2C1", "note": "[Example 448, 3-{[(3R)-3-aminopyrrolidin-1-yl]sulfonyl}-5-[4-(6,6,8-trimethyl-5,6-dihydroquinazolin-4-yl)-2,3,4,5-tetrahydro-1,4-benzoxazepin-7-yl]pyridin-2-amine]", "pIC50": "≥ 8.00"}
{"smiles": "CC1(C)CCc2ncnc(N3CCOc4ccc(-c5cnc(N)c(S(=O)(=O)N6CC[C@@H](N)C6)c5)cc4C3)c2C1", "note": "[Example 449, 3-{[(3R)-3-aminpyrrolidin-1-yl]sulfonyl}-5-[4-(6,6-dimethyl-5,6,7,8-tetrahydroquinazolin-4-yl)-2,3,4,5-tetrahydro-1,4-benzoxazepin-7-yl]pyridin-2-amine]", "pIC50": "≥ 8.00"}
{"smiles": "CC1(C)C=Cc2ncnc(N3CCOc4ccc(-c5cnc(N)c(S(=O)(=O)N6CC[C@@H](N)C6)c5)cc4C3)c2C1", "note": "[Example 450, 3-{[(3R)-3-aminopyrrolidin-1-yl]sulfonyl}-5-[4-(6,6-dimethyl-5,6-dihydroquinazolin-4-yl)-2,3,4,5-tetrahydro-1,4-benzoxazepin-7-yl]pyridin-2-amine]", "pIC50": "≥ 8.00"}
{"smiles": "CC[C@H]1CCc2c(ncnc2N2CCOc3ccc(-c4cnc(N)c(S(=O)(=O)N5CC[C@@H](N)C5)c4)cc3C2)C1", "note": "[Example 451, 3-{[(3R)-3-aminopyrrolidin-1-yl]sulfonyl}-5-{4-[(7S)-7-ethyl-5,6,7,8-tetrahydroquinazolin-4-yl]-2,3,4,5-tetrahydro-1,4-benzoxazepin-7-yl}pyridin-2-amine]", "pIC50": "7.30 to 8.00"}
{"smiles": "CC1(C)CCc2ncnc(N3CCOc4ccc(-c5cnc(N)c(S(=O)(=O)N6CC[C@H](N)C6)c5)cc4C3)c2C1", "note": "[Example 452, 3-{[(3S)-3-aminopyrrolidin-1-yl]sulfonyl}-5-[4-(6,6-dimethyl-5,6,7,8-tetrahydroquinazolin-4-yl)-2,3,4,5-tetrahydro-1,4-benzoxazepin-7-yl]pyridin-2-amine]", "pIC50": "≥ 8.00"}
{"smiles": "CC1(C)CCc2ncnc(N3CCOc4ccc(-c5cnc(O)c(S(=O)(=O)N6CC[C@H](N)C6)c5)cc4C3)c2C1", "note": "[Example 453, 3-{[(3S)-3-aminopyrrolidin-1-yl]sulfonyl}-5-[4-(6,6-dimethyl-5,6,7,8-tetrahydroquinazolin-4-yl)-2,3,4,5-tetrahydro-1,4-benzoxazepin-7-yl]pyridin-2-ol]", "pIC50": "6.60 to 7.30"}
{"smiles": "COc1ccc2c(N3CCOc4ccc(-c5cnc(N)c(S(=O)(=O)N6CC[C@H](N)C6)c5)cc4C3)ncnc2c1", "note": "[Example 454, 3-{[(3S)-3-aminopyrrolidin-1-yl]sulfonyl}-5-{4-[7-(methyloxy)quinazolin-4-yl]-2,3,4,5-tetrahydro-1,4-benzoxazepin-7-yl}pyridin-2-amine]", "pIC50": "6.00 to 6.60"}
{"smiles": "CN(C)C1CN(S(=O)(=O)c2cc(-c3ccc4c(c3)CN(c3ncnc5c3CC(C)(C)CC5)CCO4)cnc2N)C1", "note": "[Example 455, 3-{[3-(dimethylamino)azetidin-1-yl]sulfonyl}-5-[4-(6,6-dimethyl-5,6,7,8-tetrahydroquinazolin-4-yl)-2,3,4,5-tetrahydro-1,4-benzoxazepin-7-yl]pyridin-2-amine]", "pIC50": "6.60 to 7.30"}
{"smiles": "COc1ccc2c(N3CCOc4ccc(-c5cccc(C(=O)O)c5)cc4C3)nc(C)nc2c1", "note": "[Example 456, 3-{4-[2-methyl-7-(methyloxy)quinazolin-4-yl]-2,3,4,5-tetrahydro-1,4-benzoxazepin-7-yl}benzoic acid]", "pIC50": "≤ 5.70"}
{"smiles": "CC1(C)CCc2ncnc(N3CCOc4ccc(-c5cnc(C(N)=O)c(N)c5)cc4C3)c2C1", "note": "[Example 457, 3-amino-5-[4-(6,6-dimethyl-5,6,7,8-tetrahydroquinazolin-4-yl)-2,3,4,5-tetrahydro-1,4-benzoxazepin-7-yl]pyridine-2-carboxamide]", "pIC50": "6.60 to 7.30"}
{"smiles": "CC(C)(O)CC[S+]([O-])c1cc(-c2ccc3c(c2)CN(c2ncnc4c2CC(C)(C)CC4)CCO3)cnc1N", "note": "(stereo not shown) [Example 458, 4-({2-amino-5-[4-(6,6-dimethyl-5,6,7,8-tetrahydroquinazolin-4-yl)-2,3,4,5-tetrahydro-1,4-benzoxazepin-7-yl]pyridin-3-yl}sulfinyl)-2-methylbutan-2-ol]", "pIC50": "6.60 to 7.30"}
{"smiles": "Cc1nc2c(c(N3CCOc4ccc(-c5cnc6nc(C)[nH]c6c5)cc4C3)n1)CC(C)CC2", "note": "(stereo not shown) [Example 460, 4-(2,6-dimethyl-5,6,7,8-tetrahydroquinazolin-4-yl)-7-(2-methyl-1H-imidazo[4,5-b]pyridin-6-yl)-2,3,4,5-tetrahydro-1,4-benzoxazepine]", "pIC50": "7.30 to 8.00"}
{"smiles": "Cc1nc2ccc(-c3ccc4c(c3)CN(c3nc(CN5CC[C@@H](F)C5)nc5c3CC(C)(C)CC5)CCO4)cc2[nH]1", "note": "[Example 461]", "pIC50": "6.60 to 7.30"}
{"smiles": "Cc1nc2ncc(-c3ccc4c(c3)CN(c3nc(CN5CC[C@@H](F)C5)nc5c3CC(C)(C)CC5)CCO4)cc2[nH]1", "note": "[Example 462]", "pIC50": "7.30 to 8.00"}
{"smiles": "Cc1nc2ccc(-c3ccc4c(c3)CN(c3nc(CN5CC[C@H](F)C5)nc5c3CC(C)(C)CC5)CCO4)cc2[nH]1", "note": "[Example 463, 4-(2-{[(3S)-3-fluoropyrrolidin-1-yl]methyl}-6,6-dimethyl-5,6,7,8-tetrahydroquinazolin-4-yl)-7-(2-methyl-1H-benzimidazol-6-yl)-2,3,4,5-tetrahydro-1,4-benzoxazepine]", "pIC50": "6.60 to 7.30"}
{"smiles": "Cc1nc2ncc(-c3ccc4c(c3)CN(c3nc(CN5CC[C@H](F)C5)nc5c3CC(C)(C)CC5)CCO4)cc2[nH]1", "note": "[Example 464, 4-(2-{[(3S)-3-fluoropyrrolidin-1-yl]methyl}-6,6-dimethyl-5,6,7,8-tetrahydroquinazolin-4-yl)-7-(2-methyl-1H-imidazo[4,5-b]pyridin-6-yl)-2,3,4,5-tetrahydro-1,4-benzoxazepine]", "pIC50": "7.30 to 8.00"}
{"smiles": "C=Cc1nc2c(c(N3CCOc4ccc(-c5cnc6[nH]c(C)nc6c5)cc4C3)n1)CC(C)(C)CC2", "note": "[Example 465, 4-(2-ethenyl-6,6-dimethyl-5,6,7,8-tetrahydroquinazolin-4-yl)-7-(2-methyl-3H-imidazo[4,5-b]pyridin-6-yl)-2,3,4,5-tetrahydro-1,4-benzoxazepine]", "pIC50": "7.30 to 8.00"}
{"smiles": "CNC(=O)c1ccc(-c2ccc3c(c2)CN(c2nc(CN(C)C)nc4c2CC(C)(C)CC4)CCO3)cc1", "note": "[Example 466, 4-(4-{2-[(dimethylamino)methyl]-6,6-dimethyl-5,6,7,8-tetrahydroquinazolin-4-yl}-2,3,4,5-tetrahydro-1,4-benzoxazepin-7-yl)-N-methylbenzamide]", "pIC50": "6.60 to 7.30"}
{"smiles": "Cc1nc2ncc(-c3ccc4c(c3)CN(c3ncnc(C)c3Br)CCO4)cc2[nH]1", "note": "[Example 468, 4-(5-bromo-6-methylpyrimidin-4-yl)-7-(2-methyl-1H-imidazao[4,5-b]pyridin-6-yl)-2,3,4,5-tetrahydro-1,4-benzoxazepine]", "pIC50": "6.60 to 7.30"}
{"smiles": "CCc1c(C)nc(C)nc1N1CCOc2ccc(-c3cnc4nc(C)[nH]c4c3)cc2C1", "note": "[Example 469, 4-(5-ethyl-2,6-dimethylpyrimidin-4-yl)-7-(2-methyl-1H-imidazo[4,5-b]pyridin-6-yl)-2,3,4,5-tetrahydro-1,4-benzoxazepine]", "pIC50": "6.60 to 7.30"}
